For experiment [1], the system named is carbapenemase producing K. pneumoniae. In words: MIC by broth micro-dilution (CLSI), carbapenemase producing K. pneumoniae. As to conditions: Klebsiella pneumoniae, ATCCBAA1705, KPC-2 K. pneumoniae ATCC BAA-1705; read-out: MIC. The class given is cell-based, Klebsiella pneumoniae.
Experiment [2] deals with carbapenem sensitive Escherichia coli. In words: MIC by broth micro-dilution (CLSI), carbapenem sensitive E. coli. The class given is cell-based. As to conditions: Escherichia coli, ATCC25922, ESBL −ve E. coli ATCC25922; read-out: MIC.
In experiment [3] the test system is methicillin-sensitive Staphylococcus aureus. In words: MIC by broth micro-dilution (CLSI), methicillin-sensitive S. aureus. The class given is cell-based. As to conditions: Staphylococcus aureus, ATCC 29213 / MSSA, MSSA S. aureus ATCC29213; read-out: MIC.
Experiment [4] relates to carbapenem sensitive Pseudomonas aeruginosa. In words: MIC by broth micro-dilution (CLSI), carbapenem sensitive P. aeruginosa. As to conditions: Pseudomonas aeruginosa, ATCC27853, Meropenem susceptible P. aeruginosa ATCC27853; read-out: MIC. The class given is cell-based.

Converted amounts (≈) assume the structure as drawn. Some results are limits rather than exact numbers.

With `CNCc1cn(CC(=O)N[C@H](C)[C@H]2C(=O)N3C(C(=O)O)=C(S[C@@H]4CN[C@H](C(=O)N(C)C)C4)[C@H](C)[C@H]23)nn1` [Example 309, (4R,5S,6R)-3-((3S,5S)-5-(dimethylcarbamoyl)pyrrolidin-3-ylthio)-4-methyl-6-((R) - 1-(2-(4-((methylamino)methyl)-1H-1,2,3-triazol-1-yl)acetamido)ethyl)-7-oxo-1-azabicyclo[3.2.0]hept-2-ene-2-carboxylic acid], the minimal inhibitory concentration (MIC) in experiment [1] is 4 µg/mL (≈ 7.48 µM); in experiment [2], 1 µg/mL (≈ 1.87 µM); in experiment [3] it was 16 µg/mL (≈ 29.9 µM); in experiment [4], 32 µg/mL (≈ 59.9 µM).
Regarding `CNCC(=O)N[C@H](C)[C@H]1C(=O)N2C(C(=O)O)=C(S[C@@H]3CN[C@H](C(=O)N4CC[C@H](n5ncnn5)C4)C3)[C@H](C)[C@H]12` [Example 310, (4R,5S,6R)-3-((3S,5S)-5-((S)-3-(2H-tetrazol-2-yl)pyrrolidine-1-carbonyl)pyrrolidin-3-ylthio)-4-methyl-6-((R) - 1-(2-(methylamino)acetamido)ethyl)-7-oxo-1-azabicyclo[3.2.0]hept-2-ene-2-carboxylic acid], the MIC amounted to 4 µg/mL (≈ 7.3 µM) in experiment [1], 1 µg/mL (≈ 1.83 µM) in experiment [2], 32 µg/mL (≈ 58.4 µM) in experiment [3] and 64 µg/mL (≈ 117 µM) in experiment [4].
`C[C@@H](NC(=O)[C@@H](N)Cn1cccn1)[C@H]1C(=O)N2C(C(=O)O)=C(S[C@@H]3CN[C@H](C(=O)N(C)C)C3)[C@H](C)[C@H]12` [Example 311, (4R,5S,6R)-6-((R) - 1-((S)-2-amino-3-(1H-pyrazol-1-yl)propanamido)ethyl)-3-((3S,5S)-5-(dimethylcarbamoyl)pyrrolidin-3-ylthio)-4-methyl-7-oxo-1-azabicyclo[3.2.0]hept-2-ene-2-carboxylic acid]: the MIC in experiment [1] is 32 µg/mL (≈ 61.6 µM); in experiment [2] it was 8 µg/mL (≈ 15.4 µM); in experiment [3], 32 µg/mL (≈ 61.6 µM); in experiment [4], greater than 128 µg/mL.
As for `C[C@H]([C@H]1C(=O)N2C(C(=O)O)=C(S[C@@H]3CN[C@H](C(=O)N(C)C)C3)[C@H](C)[C@H]12)n1ncnn1` [Example 313, (4R,5S,6S)-6-((R) - 1-(2H-tetrazol-2-yl)ethyl)-3-((3S,5S)-5-(dimethylcarbamoyl)pyrrolidin-3-ylthio)-4-methyl-7-oxo-1-azabicyclo[3.2.0]hept-2-ene-2-carboxylic acid], the MIC is 16 µg/mL (≈ 36.7 µM) in experiment [1], 1 µg/mL (≈ 2.3 µM) in experiment [2], 4 µg/mL (≈ 9.18 µM) in experiment [3] and greater than 128 µg/mL in experiment [4].
For `C[C@@H](NC(=O)Cn1cncn1)[C@H]1C(=O)N2C(C(=O)O)=C(S[C@@H]3CN[C@H](C(=O)N4CCNCC4)C3)[C@H](C)[C@H]12` [Example 314, (4R,5S,6R)-6-((R) - 1-(2-(1H-tetrazol-1-yl)acetamido)ethyl)-4-methyl-7-oxo-3-((3S,5S)-5-(piperazine-1-carbonyl)pyrrolidin-3-ylthio) - 1-azabicyclo[3.2.0]hept-2-ene-2-] the same measures were 2 µg/mL (≈ 3.75 µM), 0.25 µg/mL (≈ 0.469 µM), 4 µg/mL (≈ 7.51 µM) and 4 µg/mL (≈ 7.51 µM).
Regarding `C[C@@H](NC(=O)Cn1nnc(N)n1)[C@H]1C(=O)N2C(C(=O)O)=C(S[C@@H]3CN[C@H](C(=O)N(C)C)C3)[C@H](C)[C@H]12` [Example 315, (4R,5S,6R)-6-((R) - 1-(2-(5-amino-2H-tetrazol-2-yl)acetamido)ethyl)-3-((3S,5S)-5-(dimethylcarbamoyl)pyrrolidin-3-ylthio)-4-methyl-7-oxo-1-azabicyclo[3.2.0]hept-2-ene-2-carboxylic acid], the MIC in experiment [1] is 2 µg/mL (≈ 3.94 µM); in experiment [2], 0.125 µg/mL (≈ 0.246 µM); in experiment [3], 4 µg/mL (≈ 7.88 µM); in experiment [4], 64 µg/mL (≈ 126 µM).
For `C[C@@H](NC(=O)Cn1nnc(N)n1)[C@H]1C(=O)N2C(C(=O)O)=C(S[C@@H]3CN[C@H](C(=O)N4CC[C@@H](N)C4)C3)[C@H](C)[C@H]12` [Example 316, (4R,5S,6R)-6-((R) - 1-(2-(5-amino-2H-tetrazol-2-yl)acetamido)ethyl)-3-((3S,5S)-5-((R)-3-aminopyrrolidine-1-carbonyl)pyrrolidin-3-ylthio)-4-methyl-7-oxo-1-azabicyclo[3.2.0]hept-2-ene-2-carboxylic acid] the same measures were 16 µg/mL (≈ 29.2 µM), 0.25 µg/mL (≈ 0.456 µM), 4 µg/mL (≈ 7.29 µM) and 16 µg/mL (≈ 29.2 µM).
On the same counts, the results for `C[C@@H](NC(=O)Cn1nc(C(F)(F)F)nc1N)[C@H]1C(=O)N2C(C(=O)O)=C(S[C@@H]3CN[C@H](C(=O)N4CC[C@@H](N)C4)C3)[C@H](C)[C@H]12` [Example 317, (4R,5S,6R)-6-((R) - 1-(2-(5-amino-3-(trifluoromethyl) - 1H-1,2,4-triazol-1-yl)acetamido)ethyl)-3-((3S,5S)-5-((R)-3-aminopyrrolidine-1-carbonyl)pyrolidin-3-ylthio)-4-methyl-7-oxo-1-azabicyclo[3.2.0]hept-2-ene-2-carboxylic acid] are 8 µg/mL (≈ 13 µM), 0.5 µg/mL (≈ 0.812 µM), 2 µg/mL (≈ 3.25 µM) and 128 µg/mL (≈ 208 µM).
On the same counts, the results for `C[C@@H](NC(=O)C(C)(C)n1cnnn1)[C@H]1C(=O)N2C(C(=O)O)=C(S[C@@H]3CN[C@H](C(=O)N(C)C)C3)[C@H](C)[C@H]12` [Example 318, (4R,5S,6R)-3-((3S,5S)-5-(dimethylcarbamoyl)pyrrolidin-3-ylthio)-4-methyl-6-((R) - 1-(2-methyl-2-(1H-tetrazol-1-yl)propanaraido)ethyl)-7-oxo-1-azabicyclop[3.2.0]hept-2-ene-2-carboxylic acid] are 128 µg/mL (≈ 246 µM), 2 µg/mL (≈ 3.84 µM), 16 µg/mL (≈ 30.7 µM) and greater than 128 µg/mL.
Take `C[C@H]([C@H]1C(=O)N2C(C(=O)O)=C(S[C@@H]3CN[C@H](C(=O)N(C)C)C3)[C@H](C)[C@H]12)n1cnnn1` [Example 319, (4R,5S,6S)-6-((R)-1-(1H-tetrazol-1-yl)ethyl)-3-((3S,5S)-5-(dimethylcarbamoyl)pyrrolidin-3-ylthio)-4-methyl-7-oxo-1-azabicyclo[3.2.0]hept-2-ene-2-carboxylic acid]: the MIC in experiment [1] was 1 µg/mL (≈ 2.3 µM); in experiment [2], 0.25 µg/mL (≈ 0.574 µM); in experiment [3], 2 µg/mL (≈ 4.59 µM); in experiment [4], 32 µg/mL (≈ 73.5 µM).
On the same counts, the results for `C[C@@H](NC(=O)Cn1nc(C(F)(F)F)nc1N)[C@H]1C(=O)N2C(C(=O)O)=C(S[C@@H]3CN[C@H](C(=O)N(C)C)C3)[C@H](C)[C@H]12` [Example 320, (4R,5S,6R)-6-((R) - 1-(2-(5-amino-3-(trifluoromethyl) - 1H-1,2,4-triazol-1-yl)acetamido)ethyl)-3-((3S,5S)-5-(dimethylcarbamoyl)pyrrolidin-3-ylthio)-4-methyl-7-oxo-1-azabiayclo[3.2.0]hept-2-ene-2-carboxylic acid] are 4 µg/mL (≈ 6.96 µM), 1 µg/mL (≈ 1.74 µM), 2 µg/mL (≈ 3.48 µM) and 128 µg/mL (≈ 223 µM).
On the same counts, the results for `C[C@@H](NC(=O)CSc1nnnn1C)[C@H]1C(=O)N2C(C(=O)O)=C(S[C@@H]3CN[C@H](C(=O)N(C)C)C3)[C@H](C)[C@H]12` [Example 321, (4R,5S,6R)-3-((3S,5S)-5-(dimethylcirbamoyl)pyrrolidin-3-ylthio)-4-methyl-6-((R) - 1-(2-(1-methyl-1H-tetrazol-5-ylthio)acetamido)ethyl)-7-oxo-1-azabicyclo[3.2.0]hept-2-ene-2-carboxylic acid] are 8 µg/mL (≈ 14.9 µM), 1 µg/mL (≈ 1.86 µM), 2 µg/mL (≈ 3.71 µM) and greater than 128 µg/mL.
`C[C@@H](NC(=O)[C@@H](N)Cn1cnnn1)[C@H]1C(=O)N2C(C(=O)O)=C(S[C@@H]3CN[C@H](C(=O)N(C)C)C3)[C@H](C)[C@H]12` [Example 322, (4R,5S,6R)-6-((R) - 1-((S)-2-amino-3-(1H-tetrazol-1-yl)propanamido)ethyl)-3-((3S,5S)-5-(dimethylcarbamoyl)pyrrolidin-3-ylthio)-4-methyl-7-oxo-1-azabicyclo[3.2.0]hept-2-ene-2-carboxylic acid]: the MIC in experiment [1] is 16 µg/mL (≈ 30.7 µM); in experiment [2] it was 2 µg/mL (≈ 3.83 µM); in experiment [3], 16 µg/mL (≈ 30.7 µM); in experiment [4] it was greater than 128 µg/mL.
Consider `C[C@@H](NC(=O)[C@@H](N)Cn1ncnn1)[C@H]1C(=O)N2C(C(=O)O)=C(S[C@@H]3CN[C@H](C(=O)N(C)C)C3)[C@H](C)[C@H]12` [Example 323, (4R,5S,6R)-6-((R) - 1-((S)-2-amino-3-(2H-tetrazol-2-yl)propanamido)ethyl)-3-((3S,5S)-5-(dimethylcarbamoyl)pyrrolidin-3-ylthio)-4-methyl-7-oxo-1-azabicyclo[3.2.0]hept-2-ene-2-carboxylic acid], for which the minimal inhibitory concentration (MIC) is 8 µg/mL (≈ 15.3 µM) in experiment [1], 2 µg/mL (≈ 3.83 µM) in experiment [2], 16 µg/mL (≈ 30.7 µM) in experiment [3] and greater than 128 µg/mL in experiment [4].
On the same counts, the results for `C[C@@H](NC(=O)Cn1cnnn1)[C@H]1C(=O)N2C(C(=O)O)=C(S[C@@H]3CN[C@H](C(=O)N4CC[C@H](N)C4)C3)[C@H](C)[C@H]12` [Example 324] are 4 µg/mL (≈ 7.5 µM), 0.5 µg/mL (≈ 0.937 µM), 4 µg/mL (≈ 7.5 µM) and 4 µg/mL (≈ 7.5 µM).
On the same counts, the results for `CO/N=C(\C(=O)N[C@H](C)[C@H]1C(=O)N2C(C(=O)O)=C(S[C@@H]3CN[C@H](C(=O)N(C)C)C3)[C@H](C)[C@H]12)c1csc(N)n1` [Example 325, (4R,5S,6R)-6-((R) - 1-((Z)-2-(2-aminothiazol-4-yl)-2-(methoxyimino)acetamido)ethyl)-3-((3S,5S)-5-(dimethylcarbamoyl)pyrrolidin-3-ylthio)-4-methyl-7-oxo-1-azabicyclo[3.2.0]hept-2-ene-2-carboxylic acid] are 64 µg/mL (≈ 113 µM), 4 µg/mL (≈ 7.07 µM), 8 µg/mL (≈ 14.1 µM) and greater than 128 µg/mL.
